Experimental findings from patent US9980927B2, “Use of tapentadol for inhibiting and/or treating depression and anxiety” (Gruenenthal GmbH, priority 2011, dated 2018) are described below.

Assay [1] deals with patients with inadequately managed, severe chronic low back pain with or without a neuropathic pain component. The assay is described as follows: EuroQol-5 Dimension (EQ-5D) health status index score, same trial. To be noted: Baseline to Week 12. The class given is in vivo, human patients. From the text: This was a multicenter, multinational, open-label, effectiveness phase IIIb trial to evaluate effectiveness and safety of tapentadol prolonged release treatment in patients with inadequately managed, severe chronic low back pain with or without a neuropathic pain component. Patients taking WHO Step II analgesics discontinued those analgesics before starting study medication; patients taking Step I analgesics and/or centrally acting co-analgesics continued on the same dose. […] All patients received tapentadol prolonged release (50-250 mg bid) for up to 12 weeks (5-week titration period and a 7-week maintenance period). Tapentadol immediate release (IR) 50 mg (twice a day, hours apart) was permitted (combined total daily dose of tapentadol prolonged release and tapentadol IR, 500 mg/day). The primary efficacy endpoint was the change from Baseline to Week 6 (when tapentadol prolonged release doses were stable) in average pain intensity on the 11-point NRS-3 using the last observation carried forward (LOCF) for imputing missing scores. […]
All subjects completed Short Form-36 (SF-36) and EuroQol-5 Dimension (EQ-5D) questionnaires and the Hospital Anxiety and Depression Scale (HADS). […] Adverse events were recorded throughout the trial.

For assay [2] the test system is unchanged. The assay is described as follows: Subject satisfaction with previous/new treatment, same trial. Type of assay: in vivo, human patients. Conditions: 0.0% at Baseline. From the text:
This was a multicenter, multinational, open-label, effectiveness phase IIIb trial to evaluate effectiveness and safety of tapentadol prolonged release treatment in patients with inadequately managed, severe chronic low back pain with or without a neuropathic pain component. Patients taking WHO Step II analgesics discontinued those analgesics before starting study medication; patients taking Step I analgesics and/or centrally acting co-analgesics continued on the same dose. […] All patients received tapentadol prolonged release (50-250 mg bid) for up to 12 weeks (5-week titration period and a 7-week maintenance period). Tapentadol immediate release (IR) 50 mg (twice a day, hours apart) was permitted (combined total daily dose of tapentadol prolonged release and tapentadol IR, 500 mg/day). The primary efficacy endpoint was the change from Baseline to Week 6 (when tapentadol prolonged release doses were stable) in average pain intensity on the 11-point NRS-3 using the last observation carried forward (LOCF) for imputing missing scores. The painDETECT questionnaire was used to evaluate the likelihood of a neuropathic pain component of low back pain; patients were classified as painDETECT “negative,” “unclear,” or “positive.” The population of patients classified as painDETECT negative was limited to approximately 30% of the total population.

Consider `CC[C@@H](c1cccc(O)c1)[C@@H](C)CN(C)C` [tapentadol, (−)-(1R,2R)-3-(3-dimethylamino-1-ethyl-2-methyl-propyl)-phenol], for which the “mean (SD) change in the EQ-5D health status index score” value was 0.18 in assay [1] (patients painDETECT negative, P=0.0022) and 0.36 (0.32) in assay [1] (patients painDETECT positive, P<0.0001). Further, the “percentage of patients rating satisfaction with treatment “excellent” or “very good”” value is 29.7% in assay [2] (Week 6 (41/138)) and 52.8% in assay [2] (Week 12 (48/91)).
